Experiments:
[1] = Low-fat yoghurts with reduced sugar, sensory duo test with 16 panellists; type: in vivo; conditions: yoghurt 0.1% fat, 8% versus 10% sucrose; compound 1 0.015%, hesperetin 0.01%
Method: Comparison preparation with sugar (A) Comparison preparation with reduced sugar content […] Preparations according to the invention with reduced sugar content and compound 1 (C) Comparison preparation with reduced sugar content and hesperetin (D)
The ingredients were mixed and cooled at 5° C.

[2] = Enhancement of the sweet impression of sucrose-containing yoghurt, rated 1-10 by a group of experts; type: in vivo; conditions: 200 ppm in yoghurt (0.5% fat content), sucrose 5%
Method: In order to quantify the enhancement of a sweet impression by addition of the propenylphenyl glycosides to be used according to the invention, the sweetness of sucrose-containing yoghurt (0.5% fat content) and of samples containing the same amount of sucrose and in addition a specific concentration of the propenylphenyl glycosides of formula (I) to be used according to the invention was determined by a group of experts (rating 1 [extremely slightly sweet] to 10 [extremely sweet]). Evaluation was carried out by calculating the enhancement (in %) of the sweetness impression from the average values of the assessments of the yoghurts containing sucrose (a) or sucrose and propenylphenyl glycoside (b).

SMILES	Compensation of the loss of sweetness as a result of sugar reduction [1]	% Enhancement of the sweetness impression ([2]; (16/10), p < 0.05)	Sweetness impression (1-10) b) with ([2]; rating 1 extremely slightly sweet to 10 extremely sweet)
COc1ccc(C2CC(=O)c3c(O)cc(O)cc3O2)cc1O (stereo not drawn) [hesperetin, reference compound]	less good results		
C=CCc1ccc(O[C@@H]2O[C@H](CO)[C@@H](O)[C@H](O)[C@H]2O)cc1 [compound 1, 1-O-[4-(propen-2-enyl)phenyl]-D-glucopyranoside]		+24%	4.9 ± 1.4
